Assay results taken from US20070049593A1 (priority 2004, published 2007).
Counter-ions that a name gives are not always drawn. Like-named read-outs stand apart in the source and are kept apart here.

Molecular target: T1, HCV polymerase (Hepatitis C virus genotype 1b, UniProt P26663)
T1 construct: a region encoding NS5B (J Virol 1991 March, 65(3), 1105-13, 544 amino acids after deletion of 47 amino acids on the C-terminal); 6xHis (C); made in house; host or cells: Escherichia coli
Experiment: biochemical
Set-up: species or system HCV BK strain
In short: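 Recombinant HCV BK-strain NS5B (C-terminal 47 aa deleted, His6-tagged, E. coli), 0.5 μg/ml, run with 5 μg/ml in vitro-transcribed RNA template (polyU/3′X), ATP/GTP/CTP 50 μM, UTP 2 μM plus [3H]UTP, pH 7.5, 25° C, 90 min. TCA-precipitated RNA counted by scintillation; IC50 from activity with vs without compound.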

T1 sequence (P26663 2420-2963): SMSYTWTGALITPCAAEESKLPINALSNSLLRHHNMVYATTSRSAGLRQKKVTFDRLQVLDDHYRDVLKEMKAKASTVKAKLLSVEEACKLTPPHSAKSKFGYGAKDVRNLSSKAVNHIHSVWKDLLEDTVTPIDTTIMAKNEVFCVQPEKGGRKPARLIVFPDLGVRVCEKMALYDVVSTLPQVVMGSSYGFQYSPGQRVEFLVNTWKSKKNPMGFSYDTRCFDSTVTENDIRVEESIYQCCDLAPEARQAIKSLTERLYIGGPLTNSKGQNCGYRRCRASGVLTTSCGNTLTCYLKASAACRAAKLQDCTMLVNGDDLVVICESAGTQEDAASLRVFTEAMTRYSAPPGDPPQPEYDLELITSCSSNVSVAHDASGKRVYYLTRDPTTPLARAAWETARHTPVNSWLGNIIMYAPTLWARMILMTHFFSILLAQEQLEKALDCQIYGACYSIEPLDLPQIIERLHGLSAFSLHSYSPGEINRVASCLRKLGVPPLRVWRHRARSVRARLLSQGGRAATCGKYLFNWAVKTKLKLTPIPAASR

Structure (SMILES)	IC50 [nM]	IC50 (read-out: HCV polymerase inhibitory activity IC50, 25° C., 90 min, [5,6-3H]UTP incorporation into RNA) [nM]
CC(C)(NC(=O)c1ccc2c(C3CCCCC3)c3n(c2c1)CCOc1ccccc1-3)C(=O)Nc1ccc(O)cc1 [Example 2-202, N-[1-(4-hydroxyphenylcarbamoyl)-1-methylethyl]-12-cyclohexyl-6,7-dihydro-5-oxa-7a-azadibenzo[a,e]azulene-9-carboxamide]	< 100	
CC(C)(NC(=O)c1ccc2c(C3CCCCC3)c3n(c2c1)CCOc1ccccc1-3)C(=O)NCCc1ccc(O)cc1 [Example 2-203, N-{1-[2-(4-hydroxyphenyl)ethylcarbamoyl]-1-methylethyl}-12-cyclohexyl-6,7-dihydro-5-oxa-7a-azadibenzo[a,e]azulene-9-carboxamide]	< 100	
CC(C)(NC(=O)c1ccc2c(C3CCCCC3)c3n(c2c1)CCOc1ccccc1-3)C(=O)Nc1ccc(F)cc1 [Example 2-204, N-[1-(4-fluorophenylcarbamoyl)-1-methylethyl]-12-cyclohexyl-6,7-dihydro-5-oxa-7a-azadibenzo[a,e]azulene-9-carboxamide]	< 100	
O=C(NCCc1ccc(O)cc1)c1ccc2c(C3CCCCC3)c3n(c2c1)CCOc1ccccc1-3 [Example 2-205, N-[2-(4-hydroxyphenyl)ethyl]-12-cyclohexyl-6,7-dihydro-5-oxa-7a-azadibenzo[a,e]azulene-9-carboxamide]	< 100	
O=C(NCC1(O)CCCCC1)c1ccc2c(C3CCCCC3)c3n(c2c1)CCOc1ccccc1-3 [Example 2-206, N-(1-hydroxycyclohexylmethyl)-12-cyclohexyl-6,7-dihydro-5-oxa-7a-azadibenzo[a,e]azulene-9-carboxamide]	100 to 1000	
NC(=O)[C@H](Cc1ccc(O)cc1)NC(=O)c1ccc2c(C3CCCCC3)c3n(c2c1)CCOc1ccccc1-3 [Example 2-207, N—[(S)-1-carbamoyl-2-(4-hydroxyphenyl)ethyl]-12-cyclohexyl-6,7-dihydro-5-oxa-7a-azadibenzo[a,e]azulene-9-carboxamide]	< 100	
CC(C)(NC(=O)c1ccc2c(C3CCCCC3)c3n(c2c1)CCOc1ccccc1-3)C1CCC(C(=O)O)CC1 (centres unmarked) [Example 2-208, 4-{1-[(12-cyclohexyl-6,7-dihydro-5-oxa-7a-azadibenzo[a,e]azulene-9-carbonyl)amino]-1-methylethyl}cyclohexanecarboxylic acid]	100 to 1000	
COC(=O)c1[nH]c(C(C)(C)NC(=O)c2ccc3c(C4CCCCC4)c4n(c3c2)CCOc2ccccc2-4)nc1C [Example 2-209, methyl 2-{1-[(12-cyclohexyl-6,7-dihydro-5-oxa-7a-azadibenzo[a,e]azulene-9-carbonyl)amino]-1-methylethyl]-5-methyl-3H-imidazole-4-carboxylate]	< 100	
COC(=O)C(Cc1c[nH]c2ccc(O)cc12)NC(=O)c1ccc2c(C3CCCCC3)c3n(c2c1)CCOc1ccccc1-3 (centres unmarked) [Example 2-210]		< 100
CC(C)(CNC(=O)c1ccc(C(=O)O)cc1)NC(=O)c1ccc2c(C3CCCCC3)c3n(c2c1)CCOc1ccccc1-3 [Example 2-211, N-{2-[(12-cyclohexyl-6,7-dihydro-5-oxa-7a-azadibenzo[a,e]azulene-9-carbonyl)amino]-2-methylpropyl}terephthalamic acid]	100 to 1000	
COC(=O)c1ccc(C(=O)NCC(C)(C)NC(=O)c2ccc3c(C4CCCCC4)c4n(c3c2)CCOc2ccccc2-4)cc1 [Example 2-212, methyl N-{2-[(12-cyclohexyl-6,7-dihydro-5-oxa-7a-azadibenzo[a,e]azulene-9-carbonyl)amino]-2-methylpropyl}-terephthalamate]	100 to 1000	
CN(C)Cc1ccc(NC(=O)C(C)(C)NC(=O)c2ccc3c(C4CCCCC4)c4n(c3c2)CCOc2ccccc2-4)cc1 [Example 2-213, N-[1-(4-dimethylaminomethylphenylcarbamoyl)-1-methylethyl]-12-cyclohexyl-6,7-dihydro-5-oxa-7a-azadibenzo[a,e]azulene-9-carboxamide]	< 100	
CC(C)(NC(=O)c1ccc2c(C3CCCCC3)c3n(c2c1)CCOc1ccccc1-3)c1nc2cc(C(=O)O)ccc2[nH]1 [Example 2-214, 2-{1-[(12-cyclohexyl-6,7-dihydro-5-oxa-7a-azadibenzo[a,e]azulene-9-carbonyl)amino]-1-methylethyl}-1H-benzimidazole-5-carboxylic acid]	< 100	
CC(C)(Cc1ccc(C(=O)O)cc1)NC(=O)c1ccc2c(C3CCCCC3)c3n(c2c1)CCOc1ccccc1-3 [Example 2-216, 4-{2-[(12-cyclohexyl-6,7-dihydro-5-oxa-7a-azadibenzo[a,e]azulene-9-carbonyl)amino]-2-methylpropyl}benzoic acid]	100 to 1000	
O=C(N[C@H](CO)Cc1ccc(O)cc1)c1ccc2c(C3CCCCC3)c3n(c2c1)CCOc1ccccc1-3 [Example 2-217, N—[(S)-1-hydroxymethyl-2-(4-hydroxyphenyl)ethyl]-12-cyclohexyl-6,7-dihydro-5-oxa-7a-azadibenzo[a,e]azulene-9-carboxamide]	< 100	
COC(=O)[C@H](Cc1ccc(OC)cc1)NC(=O)c1ccc2c(C3CCCCC3)c3n(c2c1)CCOc1ccccc1-3 [Example 2-218, methyl (S)-2-[(12-cyclohexyl-6,7-dihydro-5-oxa-7a-azadibenzo[a,e]azulene-9-carbonyl)amino]-3-(4-methoxyphenyl)propionate]	< 100	
COc1ccc(CC(C)(C)NC(=O)c2ccc3c(C4CCCCC4)c4n(c3c2)CCOc2ccccc2-4)cc1 [Example 2-219, N-[2-(4-methoxyphenyl)-1,1-dimethylethyl]-12-cyclohexyl-6,7-dihydro-5-oxa-7a-azadibenzo[a,e]azulene-9-carboxamide]	100 to 1000	
CC(C)(Cc1ccc(O)cc1)NC(=O)c1ccc2c(C3CCCCC3)c3n(c2c1)CCOc1ccccc1-3 [Example 2-220, N-[2-(4-hydroxyphenyl)-1,1-dimethylethyl]-12-cyclohexyl-6,7-dihydro-5-oxa-7a-azadibenzo[a,e]azulene-9-carboxamide]	100 to 1000	
O=C(O)c1ccc2c(C3CCCCC3)c3n(c2c1)CCOc1c-3cccc1N(CCc1ccccc1)CCN1CCCCC1 [Example 2-221, 12-cyclohexyl-4-{N-phenethyl-N-[2-(piperidin-1-yl)ethyl]amino}-6,7-dihydro-5-oxa-7a-azadibenzo[a,e]azulene-9-carboxylic acid]	< 100	
CC(=O)N1CCC(NC(=O)c2ccc3c(C4CCCCC4)c4n(c3c2)CCOc2ccccc2-4)(C(=O)Nc2ccc(/C=C/C(=O)O)cc2)CC1 [Example 2-222, (E)-3-[4-({1-acetyl-4-[(12-cyclohexyl-6,7-dihydro-5-oxa-7a-azadibenzo[a,e]azulene-9-carbonyl)amino]piperidine-4-carbonyl}amino)phenyl]acrylic acid]	< 100	
CN1CCC(NC(=O)c2ccc3c(C4CCCCC4)c4n(c3c2)CCOc2ccccc2-4)(C(=O)Nc2ccc(/C=C/C(=O)O)cc2)CC1 [Example 2-223, (E)-3-[4-({4-[(12-cyclohexyl-6,7-dihydro-5-oxa-7a-azadibenzo[a,e]azulene-9-carbonyl)amino]-1-methylpiperidine-4-carbonyl]amino)phenyl]acrylic acid]	< 100	
CC(C)(COc1ccc(N)cc1)NC(=O)c1ccc2c(C3CCCCC3)c3n(c2c1)CCOc1ccccc1-3 [Example 2-224, N-[2-(4-aminophenoxy)-1,1-dimethylethyl]-12-cyclohexyl-6,7-dihydro-5-oxa-7a-azadibenzo[a,e]azulene-9-carboxamide]	< 100	
CC(C)(NC(=O)c1ccc2c(C3CCCCC3)c3n(c2c1)CCOc1ccccc1-3)c1nc2ccc(C(N)=O)cc2[nH]1 [Example 2-225, N-[1-(6-carbamoyl-1H-benzimidazol-2-yl)-1-methylethyl]-12-cyclohexyl-6,7-dihydro-5-oxa-7a-azadibenzo[a,e]azulene-9-carboxamide]	< 100	
CC(C)(COc1ccc(N2CCCC2=O)cc1)NC(=O)c1ccc2c(C3CCCCC3)c3n(c2c1)CCOc1ccccc1-3 [Example 2-226, N-{1,1-dimethyl-2-[4-(2-oxopyrrolidin-1-yl)phenoxy]ethyl}-12-cyclohexyl-6,7-dihydro-5-oxa-7a-azadibenzo[a,e]azulene-9-carboxamide]	< 100	
Cc1nc(C(C)(C)NC(=O)c2ccc3c(C4CCCCC4)c4n(c3c2)CCOc2ccccc2-4)[nH]c1C(=O)O [Example 2-227, 2-{1-[(12-cyclohexyl-6,7-dihydro-5-oxa-7a-azadibenzo[a,e]azulene-9-carbonyl)amino]-1-methylethyl}-5-methyl-3H-imidazole-4-carboxylic acid]	< 100	
CC(C)(NC(=O)c1ccc2c(C3CCCCC3)c3n(c2c1)CCOc1ccccc1-3)c1ccc(OCc2ccccc2)cc1 [Example 2-228, N-[1-(4-benzyloxyphenyl)-1-methylethyl]-12-cyclohexyl-6,7-dihydro-5-oxa-7a-azadibenzo[a,e]azulene-9-carboxamide]	< 100	
O=C(O)CN1CCC(NC(=O)c2ccc3c(C4CCCCC4)c4n(c3c2)CCOc2ccccc2-4)(C(=O)O)CC1 [Example 2-229, 1-carboxymethyl-4-[(12-cyclohexyl-6,7-dihydro-5-oxa-7a-azadibenzo[a,e]azulene-9-carbonyl)amino]piperidine-4-carboxylic acid monohydrochloride]	< 100	
CC(C)(NC(=O)c1ccc2c(C3CCCCC3)c3n(c2c1)CCOc1ccccc1-3)c1ccc(O)cc1 [Example 2-230, N-[1-(4-hydroxyphenyl)-1-methylethyl]-12-cyclohexyl-6,7-dihydro-5-oxa-7a-azadibenzo[a,e]azulene-9-carboxamide]	< 100	
CCN(CCN1CCCCCC1)c1cccc2c1OCCn1c-2c(C2CCCCC2)c2ccc(C(=O)O)cc21 [Example 2-231, 4-{N-[2-(azepan-1-yl)ethyl]-N-ethylamino}-12-cyclohexyl-6,7-dihydro-5-oxa-7a-azadibenzo[a,e]azulene-9-carboxylic acid dihydrochloride]	< 100	
